Measured values reported in paper PMC5509055 (Prostaglandins & other lipid mediators, 2017).
Counter-ions that a name gives are not always drawn.

Columns and labels:
[1] = biological target: T1, sphingosine kinase 2 (SK2) (Homo sapiens, UniProt Q9NRA0); test: fluorescent NBD-sphingosine kinase assay with recombinant human SK2; assay type: biochemical
T1 sequence (Q9NRA0 1-654): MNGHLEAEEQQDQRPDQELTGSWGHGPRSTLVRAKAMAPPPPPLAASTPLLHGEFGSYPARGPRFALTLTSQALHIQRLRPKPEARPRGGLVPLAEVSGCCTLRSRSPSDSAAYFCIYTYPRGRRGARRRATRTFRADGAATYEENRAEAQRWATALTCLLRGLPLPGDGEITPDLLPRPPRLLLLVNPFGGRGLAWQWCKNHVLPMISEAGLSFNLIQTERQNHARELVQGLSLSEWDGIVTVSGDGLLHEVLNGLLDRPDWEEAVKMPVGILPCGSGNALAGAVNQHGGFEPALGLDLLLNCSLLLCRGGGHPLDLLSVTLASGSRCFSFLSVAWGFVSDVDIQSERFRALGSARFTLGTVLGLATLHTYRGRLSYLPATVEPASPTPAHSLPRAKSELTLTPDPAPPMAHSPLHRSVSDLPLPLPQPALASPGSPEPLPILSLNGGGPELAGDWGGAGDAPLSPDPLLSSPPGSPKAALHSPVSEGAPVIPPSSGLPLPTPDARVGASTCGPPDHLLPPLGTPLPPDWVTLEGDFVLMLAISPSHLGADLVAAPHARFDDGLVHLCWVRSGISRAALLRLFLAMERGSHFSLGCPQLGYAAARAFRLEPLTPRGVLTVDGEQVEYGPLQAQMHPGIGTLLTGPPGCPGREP

[2] = biological target: sphingosine kinase 1 (SK1) (Homo sapiens, UniProt Q9NYA1); test: fluorescent NBD-sphingosine kinase assay with recombinant human SK1; assay type: biochemical
sphingosine kinase 1 (SK1), sequence (Q9NYA1 whole entry): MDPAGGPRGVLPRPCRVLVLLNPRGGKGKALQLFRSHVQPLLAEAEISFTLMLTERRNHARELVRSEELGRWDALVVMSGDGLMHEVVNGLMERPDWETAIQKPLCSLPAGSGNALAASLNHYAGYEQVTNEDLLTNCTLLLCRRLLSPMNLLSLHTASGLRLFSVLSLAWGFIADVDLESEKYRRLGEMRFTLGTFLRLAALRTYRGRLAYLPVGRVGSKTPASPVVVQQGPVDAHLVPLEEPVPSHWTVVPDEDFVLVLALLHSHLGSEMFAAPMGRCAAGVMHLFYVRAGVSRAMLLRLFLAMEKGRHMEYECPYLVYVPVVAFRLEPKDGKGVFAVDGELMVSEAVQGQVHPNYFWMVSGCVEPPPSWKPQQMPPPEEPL

CCCCCCCCCCCCC/C=C/[C@H](O)[C@@H](CO)NC(=N)N [LCL351, L-erythro-2-N-(1′-carboxamidino)-sphingosine hydrochloride]
IC50 [1]: ~57 µM | IC50 [2]: ~5.5 µM
